Where two headings read alike, the source gives them in different places. Marks after values point to notes of the source that are not given here. Ends that are not written are not given here. Peptide text beside a SMILES is read from it.
Experiments:
[1] = system: human peripheral blood mononuclear cells (MCP-1); assay: SPOT-synthesized derivative screen: production of chemokine MCP-1; format: cell-based; settings: No LPS
Summary of the method: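 MCP-1 was quantified by capture ELISA in cleared culture supernatants of treated human peripheral blood mononuclear cells. Cells came from heparinized volunteer blood via Ficoll gradient and were seeded at 0.75 to 1×10^6 cells/ml (37 °C, 5% CO2).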

S. aureus biofilm = format: cell-based; settings: concentration that reduced biofilm growth by 50%
Description: (§1) Methods of assessment of anti-biofilm activity—Biofilm formation was initially analyzed using a static abiotic solid surface assay as described elsewhere (de la Fuente-Nunez et al., 2012). […] Planktonic cells were removed, biofilm cells adhering to the side of the tubes were stained with crystal violet, and absorbance at 595 nm was measured using a microtiter plate reader (Bio-Tek Instruments Inc., United States). Some peptides were screened against two Gram negative organisms, P. aeruginosa and K. pneumoniae using a Bioflux apparatus (AutoMate Scientific, Berkeley, Calif.; http://www.autom8.com/bioflux_biofilm.html), which allows for the high-throughput, real-time analysis of biofilms.

P. aeruginosa biofilm = format: cell-based
Description: as §1

[2] = system: LPS-stimulated human peripheral blood mononuclear cells (IL1-β); format: cell-based; settings: cells stimulated with 10 ng/ml LPS
S. aureus biofilms = assay: checkerboard titration biofilm synergy (MBIC, FIC); format: cell-based
Description: Peptides and various conventional antibiotics were analyzed by checkerboard titration into microtiter trays using CLSI methods (Wiegand, I., K. Hilpert, and R. E. W. Hancock. 2008. Nature Protocols 3:163-175), bacteria added and, after overnight incubation at 37° C., the residual biofilm assessed by the crystal violet method mentioned in the body of the grant, with an A595 of 0.2 considered as 100% biofilm inhibition. The effects of the peptide in reducing the minimal biofilm inhibitory concentration (MBIC) of the antibiotic and vice versa were assessed using the Fractional Inhibitory Concentration (FIC) method whereby ΣFTC=FICA+FICB=(CA/MICA)+(CB/MICB), where MBICA and MBICB are the MBICs of peptide A and antibiotic B alone, respectively, and CA and CB (expressed in μg/ml) are the MICs of the drugs in combination. This conventional clinical microbiology assay is interpreted as follows

[3] = system: methicillin resistant Staphylococcus aureus (MRSA) biofilm; settings: approximate peptide concentration […] (around 3 μg/ml); compared to untreated samples
Summary of the method: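 Peptide was present from inoculation onward, with bacteria seeded at 1/100 from overnight cultures into BM2 biofilm medium or Luria Broth. Crystal violet staining of surface-attached cells (A595) quantified biofilm reduction at 22–46 h. K. pneumoniae was additionally screened in a real-time Bioflux flow device for some peptides.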

[4] = Table 12A, background subtracted (21.3 pg/ml)
[5] = Table 12A, 1002-2013 compared to LPS control of 889 pg/ml
[6] = Table 12A, LPS alone 984 pg/ml, starred values (1002-2013) determined separately, LPS alone 889 pg/ml
[7] = Table 12, human PBMC, peptide at ~18-24 μM
[8] = Table 12, human PBMC, peptide at ~18-24 μM, background subtracted 139 (HH2 derivatives), 170 (1018 derivatives), 242 (1002 and hybrid peptides) pg/ml
[9] = Table 12, LPS alone 1313 (HH2 derivatives), 1927 (1018 derivatives), 2455 (1002 and hybrid peptides) pg/ml

Row | Compound | Fold increase in MCP1 cf. untreated cells ([1]; Table 12A) | MCP1 [1, 4] [pg/mL] | MBIC50 S. aureus (S. aureus biofilm) [µg/mL] | MBIC50 P. aeruginosa (P. aeruginosa biofilm; concentration that reduced biofilm growth by 50%) [µg/mL] | Fold change in IL1β relative to no peptide LPS stimulated cells [2, 5] | IL1β Production [2, 6] [pg/mL] | Fold increase in MCP1 cf. untreated cells [1, 7] | MCP1 [1, 8] [pg/mL] | MBIC50 P. aeruginosa (P. aeruginosa biofilm; biofilm) [µg/mL] | Fold change in IL1β relative to no peptide LPS stimulated cells ([2]; Table 12) | IL1β Production [2, 9] [pg/mL] | IL1β Production (pg/ml) [2, 6] | FIC (S. aureus biofilms; antibiotic in combination with peptide DJK6) | Fold decrease in antibiotic concentration (S. aureus biofilms; in the presence of peptide DJK6) | % Biofilm inhibition [3] [%]
1 | CC[C@H](C)[C@H](NC(=O)[C@H](CCCNC(=N)N)NC(=O)[C@@H](NC(=O)[C@H](CCCCN)NC(=O)[C@@H](NC(=O)[C@@H](NC(=O)[C@H](CC(C)C)NC(=O)[C@H](CCCNC(=N)N)NC(=O)[C@@H](N)C(C)C)[C@@H](C)CC)C(C)C)C(C)C)C(=O)N[C@@H](Cc1c[nH]c2ccccc12)C(=O)N[C@@H](CCCNC(=N)N)C(=O)N[C@@H](CCCNC(=N)N)C(N)=O [Peptide 2001] (H-VRLIVKVRIWRR-NH2; N-terminus assumed) | 765 | 16300 | 10 | 2.5 | 0.08 | 76 |  |  |  |  |  |  |  |  | 
2 | CC[C@H](C)[C@H](NC(=O)[C@H](CCCNC(=N)N)NC(=O)[C@H](CC(C)C)NC(=O)[C@H](CCC(N)=O)NC(=O)[C@@H](N)C(C)C)C(=O)N[C@@H](CCCNC(=N)N)C(=O)N[C@H](C(=O)N[C@@H](C)C(=O)N[C@H](C(=O)N[C@H](C(=O)N[C@@H](CCCNC(=N)N)C(=O)N[C@@H](C)C(N)=O)[C@@H](C)CC)C(C)C)C(C)C [HH2] (H-VQLRIRVAVIRA-NH2; N-terminus assumed) | 43 | 896 |  |  | 0.53 |  | 3.6 | 450 | >80 | 1.00 | 1307 | 469* pg/ml |  |  | 
3 | CC[C@H](C)[C@H](NC(=O)[C@H](CCCNC(=N)N)NC(=O)[C@H](CC(C)C)NC(=O)[C@H](CCC(N)=O)NC(=O)[C@@H](N)Cc1c[nH]c2ccccc12)C(=O)N[C@@H](CCCNC(=N)N)C(=O)N[C@H](C(=O)N[C@@H](CCCCN)C(=O)N[C@H](C(=O)N[C@H](C(=O)N[C@@H](CCCNC(=N)N)C(=O)N[C@@H](CCCCN)C(N)=O)[C@@H](C)CC)C(C)C)C(C)C [Peptide 2012] (H-WQLRIRVKVIRK-NH2; N-terminus assumed) | 227 | 4824 |  |  | 0.43 |  |  |  | 20 |  |  | 381* pg/ml |  |  | 
4 | CC[C@H](C)[C@H](NC(=O)[C@H](CCCNC(=N)N)NC(=O)[C@H](CC(C)C)NC(=O)[C@H](CCC(N)=O)NC(=O)[C@@H](N)C(C)C)C(=O)N[C@@H](CCCNC(=N)N)C(=O)N[C@H](C(=O)N[C@@H](CCCCN)C(=O)N[C@H](C(=O)N[C@H](C(=O)N[C@@H](CCCNC(=N)N)C(=O)N[C@@H](CCCCN)C(N)=O)[C@@H](C)CC)C(C)C)C(C)C [Peptide 2011] (H-VQLRIRVKVIRK-NH2; N-terminus assumed) | 38 | 796 |  |  | 0.62 |  |  |  | 10 |  |  | 550* pg/ml |  |  | 
5 | CN[C@H](CC(C)C)C(=O)N[C@H]1C(=O)N[C@@H](CC(N)=O)C(=O)N[C@H]2C(=O)N[C@H]3C(=O)N[C@H](C(=O)N[C@H](C(=O)O)c4cc(O)cc(O)c4-c4cc3ccc4O)[C@H](O)c3ccc(c(Cl)c3)Oc3cc2cc(c3O[C@@H]2O[C@H](CO)[C@@H](O)[C@H](O)[C@H]2O[C@H]2C[C@](C)(N)[C@H](O)[C@H](C)O2)Oc2ccc(cc2Cl)[C@H]1O [Vancomycin] |  |  |  |  |  |  |  |  |  |  |  |  | 0.4 | 16 | 
6 | CC[C@H](C)[C@H](NC(=O)[C@H](CCCNC(=N)N)NC(=O)[C@H](Cc1c[nH]c2ccccc12)NC(=O)[C@@H](NC(=O)[C@@H](NC(=O)[C@H](CC(C)C)NC(=O)[C@H](Cc1c[nH]c2ccccc12)NC(=O)[C@H](CCCNC(=N)N)NC(=O)[C@H](CCC(N)=O)NC(=O)[C@@H](N)C(C)C)[C@@H](C)CC)C(C)C)C(=O)N[C@@H](CCCNC(=N)N)C(=O)N[C@@H](CCCCN)C(N)=O [Peptide 1002] (H-VQRWLIVWRIRK-NH2; N-terminus assumed) | 576 | 11994 |  |  | 0.13 |  | 3.5 | 603.2 | 5 | 0.05 | 127 | 111* pg/ml |  |  | 
7 | CC[C@H](C)[C@H](NC(=O)[C@H](CCCNC(=N)N)NC(=O)[C@H](Cc1c[nH]c2ccccc12)NC(=O)[C@H](CCCNC(=N)N)NC(=O)[C@@H](NC(=O)[C@H](CC(C)C)NC(=O)[C@H](CC(C)C)NC(=O)[C@H](CCCNC(=N)N)NC(=O)[C@H](Cc1c[nH]c2ccccc12)NC(=O)[C@@H](N)CCCCN)[C@@H](C)CC)C(=O)N[C@@H](CCC(N)=O)C(=O)N[C@@H](CCCCN)C(N)=O [Peptide 2009] (H-KWRLLIRWRIQK-NH2; N-terminus assumed) | 586 | 12475 |  |  | 0.08 |  |  |  | 2.5 |  |  | 74* pg/ml |  |  | 
8 | 1018-Q4: single substituted 1018 peptide (VRLQVAVRIWRR-NH2) [Peptide 1018-Q4] |  |  |  |  |  |  | 0.4 | -104 |  | 0.35 | 458 |  |  |  | 39
9 | HH2-Q5: single substituted HH2 peptide (VQLRQRVAVIRA-NH2) |  |  |  |  |  |  | 4.5 | 603 |  | 0.98 | 1284 |  |  |  | 25
10 | 1002-W2: single substituted 1002 peptide (VWRWLIVWRIRK-NH2) [Peptide 1002-W2] |  |  |  |  |  |  | 11.8 | 2611.5 |  | 0.05 | 127 |  |  |  | 61
11 | 1002-I12: single substituted 1002 peptide (VQRWLIVWRIRI-NH2) [Peptide 1002-I12] |  |  |  |  |  |  | 0.9 | -36.2 |  | 0.05 | 127 |  |  |  | 66
12 | CC[C@H](C)[C@H](NC(=O)[C@H](CCCNC(=N)N)NC(=O)[C@H](Cc1c[nH]c2ccccc12)NC(=O)[C@H](CCCNC(=N)N)NC(=O)[C@@H](NC(=O)[C@H](CC(C)C)NC(=O)[C@H](Cc1c[nH]c2ccccc12)NC(=O)[C@H](CCCNC(=N)N)NC(=O)[C@H](CCC(N)=O)NC(=O)[C@@H](N)CCCCN)[C@@H](C)CC)C(=O)N[C@@H](CCCNC(=N)N)C(=O)N[C@@H](CCCCN)C(N)=O [Peptide 2010] (H-KQRWLIRWRIRK-NH2; N-terminus assumed) | 266 | 5649 |  |  | 0.42 |  |  |  | 2.5 |  |  | 377* pg/ml |  |  | 
13 | 1002-K11: single substituted 1002 peptide (VQRWLIVWRIKK-NH2) [Peptide 1002-K11] |  |  |  |  |  |  | 3.2 | 543.3 |  | 0.05 | 127 |  |  |  | 74
